Data as given in patent publication US9266904B2, “6-bridged heteroaryldihydropyrimidines for the treatment and prophylaxis of hepatitis B virus infection” (priority 2013, dated 2016).
In brackets after ≈: the same amount, converted by molar mass.

Columns and labels:
HBV = HBV infected transgenic mouse or humanized mouse models; cited from earlier work
[1] = Lyophilisation solubility assay (Lysa); assay type: physicochemical; settings: pH 6.5, aqueous buffer, thermodynamic from solid
How it was run: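 DMSO was evaporated from 10 mM stocks, and residues were taken up in 0.05 M phosphate buffer pH 6.5, stirred 1 h, shaken 2 h and left overnight. Filtrates were quantified by UV or HPLC-UV against a four-point calibration, in duplicate. Values are in μg/ml, with a lower-bound value when >80% dissolved.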

CYP3A4 = settings: human, 24 h
Protocol: Human cryopreserved hepatocytes (Life Technologies, Carlsbad, USA) were thawed and cultured in collagen I coated 96-well plates with a density of 52,000 cells/well. After attachment, medium was changed and cells were pre-cultured overnight in hepatocyte maintenance medium (HMM; Lonza, Switzerland).
Test compounds were dosed to the cells next morning at an indicated concentration (up to 10 μM) in HMM culture media containing gentamycin and a constant 0.1% DMSO. Similarly, dilutions of the positive inducer compounds omeprazole (prototypical inducer of human CYP1A2; final concentrations: 1 and 10 μM), phenobarbital (prototypical inducer of human CYP2B6; final concentrations: 100 and 1000 μM) and rifampicin (prototypical inducer of human CYP3A4; final concentrations: 1 and 10 μM) were prepared from 1000 fold DMSO stock solutions in HMM containing gentamycin. Medium change was then performed and cells were exposed for 24 hours to test compounds, positive inducer compounds, or vehicle (0.1% DMSO), respectively.
At the end of the compound exposure period, medium was removed and cells lysed using 100 μL/well MagNA Pure LC RNA isolation tissue lysis buffer (Roche Diagnostics AG, Rotkreuz, Switzerland). Plates were then sealed and frozen at −80° C. until further workup.
mRNA isolation was performed using the MagNA Pure 96 system (Roche Diagnostics AG, Rotkreuz, Switzerland) and the respective cellular RNA large volume kit (Roche Diagnostics AG, Rotkreuz, Switzerland) from thawed samples diluted 1:1 with PBS. The volume of the cell lysis and an elution volume of 100 μL were used. 20 μL of the resulting mRNA suspension was then used for reverse transcription using 20 μL of the transcript or first stand cDNA synthesis kit (Roche prime Supply, Mannheim, Germany). The resulting cDNA was diluted with 40 μL of H2O before using for qRT-PCR. qRT-PCR was performed by using the forward and the reverse primer, the corresponding UPL (all from Microsynth, Balgach, Switzerland) and the Taqman Fast advanced master mix (Applied Biosystems), on an ABI 7900 machine (Applied Biosystems).
qRT-PCR Ct-values for the respective P450s were put into relation to the Ct-value of RN18S1 (microsynth, Balgach, Switzerland) of the same sample. Doing so, a respective Δct-value was calculated. Using the average of all Δct-values for the vehicle control samples, a ΔΔct-value was calculated for each sample (ΔΔct-value(sample)=Δct-value(sample)−average of Δct-value of all vehicle controls). The fold induction of the respective sample was calculated as 2^(−ΔΔct). The individual fold induction values were then averaged per treatment condition (usually n=3 biological replicates).
Relative induction values to the respective positive inducer compound condition (10 μM omeprazole for CYP1A2; 1000 μM Phenobarbital for CYP2B6; 10 μM rifampicin for CYP3A4) were then calculated from the fold induction values as follows: Relative induction(%)=100×(T−V)/(P−V)
T: fold induction of test compound condition
P: fold induction of positive inducer compound
V: fold induction of vehicle controls

HepDE19 cells = experiment: Cytotoxicity (CCK-8 cell viability) and selectivity index; assay type: cell-based, human; settings: CC50 value/EC50 value
How it was run: (§1)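 HepDE19 cells (5×10^3/well) were treated with compounds as for the EC50 runs and, after 5 days, given CCK-8 for 2 h at 37° C. Absorbance was read at OD450 and OD630, and CC50 was taken as the concentration killing 50% of host cells.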

[2] = as above; assay type: cell-based, human; settings: human, HepDE19 cells; cytotoxicity, concentration resulting in death of 50% of host cells
How it was run: as §1

[3] = tested on: HBV replication in HepG2.2.15 cells; experiment: Anti-HBV activity in vitro in HepG2.2.15 cells (extracellular HBV DNA by qPCR); assay type: cell-based; settings: Hepatitis B virus, HepG2.2.15, Anti-HBV activity in HepG2.2.15 cells; read-out: EC50
How it was run: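 Constitutively HBV-producing HepG2.2.15 cells were seeded overnight at 37 °C, then treated with half-log serial dilutions of compound (0.5% DMSO final) for five days. Supernatant HBV DNA was extracted and quantified by qPCR; EC50 is the concentration inhibiting HBV replication by 50%.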

[4] = Human microsomal clearance assay; assay type: in vitro ADME; settings: human, 1 μM, pH 7.4
How it was run: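 Liver microsomes (0.5 mg/mL protein) were incubated with 1 μM compound at 37 °C, pH 7.4 phosphate, with an NADPH-regenerating system. Samples at 0-30 min were quenched and measured by LC-MS/MS for parent loss. No-NADPH controls were included.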

## COC(=O)C1=C(C)NC(c2ncc(F)cc2F)=N[C@H]1c1ccc(F)cc1Cl [Bay 41-4109]
HBV
  in vivo efficacy (HBV DNA reduction): demonstrated in vivo efficacy with HBV DNA reduction

## COC(=O)C1=C(CN2C3COCC2CC(CC(=O)O)C3)NC(c2nccs2)=N[C@H]1c1ccc(F)cc1Cl (stereo partly drawn) [Example 24, (R)-6-(7-Carboxymethyl-3-oxa-9-aza-bicyclo[3.3.1]non-9-ylmethyl)-4-(2-chloro-4-fluoro-phenyl)-2-thiazol-2-yl-1,4-dihydro-pyrimidine-5-carboxylic acid methyl ester]
[1]
  solubility thermodynamic: > 621 µg/mL
CYP3A4
  % of Positive control (10 μM Rifampicin): 29%
HepDE19 cells
  Selectivity index (CC50/EC50): >7692
[2]
  CC50 at 5 days: > 100 µM
[3]
  EC50: 13 nM
[4]
  CLh: 2.6 mL/min/kg

## CCOC(=O)C1=C(CN2C3COCC2CC(CC(=O)O)C3)NC(c2nccs2)=N[C@H]1c1ccc(F)cc1Cl (stereo partly drawn) [Example 26, (R)-6-(7-Carboxymethyl-3-oxa-9-aza-bicyclo[3.3.1]non-9-ylmethyl)-4-(2-chloro-4-fluoro-phenyl)-2-thiazol-2-yl-1,4-dihydro-pyrimidine-5-carboxylic acid ethyl ester]
[1]
  solubility thermodynamic: 470 µg/mL (≈ 835 µM)
CYP3A4
  % of Positive control (10 μM Rifampicin): 36%
HepDE19 cells
  Selectivity index (CC50/EC50): 5231
[2]
  CC50 at 5 days: 68 µM
[3]
  EC50: 13 nM
[4]
  CLh: 3.5 mL/min/kg

## COC(=O)C1=C(CN2C3COCC2CC(NC(C)=O)C3)NC(c2nccs2)=N[C@H]1c1ccc(F)cc1Cl (stereo partly drawn) [Example 35, (R)-6-(7-Acetylamino-3-oxa-9-aza-bicyclo[3.3.1]non-9-ylmethyl)-4-(2-chloro-4-fluoro-phenyl)-2-thiazol-2-yl-1,4-dihydro-pyrimidine-5-carboxylic acid methyl ester]
CYP3A4
  % of Positive control (10 μM Rifampicin): 20%
HepDE19 cells
  Selectivity index (CC50/EC50): 7813
[2]
  CC50 at 5 days: 50 µM
[3]
  EC50: 6 nM
[4]
  CLh: 6.4 mL/min/kg

## COC(=O)C1=C(CN2[C@@H]3COC[C@H]2C[C@@H](NS(N)(=O)=O)C3)NC(c2nccs2)=N[C@H]1c1ccc(F)cc1Cl [Example 56, Methyl (4R)-4-(2-chloro-4-fluoro-phenyl)-6-[[(1R,5S)-7-endo-(sulfamoylamino)-3-oxa-9-azabicyclo[3.3.1]nonan-9-yl]methyl]-2-thiazol-2-yl-1,4-dihydropyrimidine-5-carboxylate]
CYP3A4
  % of Positive control (10 μM Rifampicin): 23%
HepDE19 cells
  Selectivity index (CC50/EC50): 9766
[2]
  CC50 at 5 days: 43 µM
[3]
  EC50: 4.4 nM
[4]
  CLh: 6.1 mL/min/kg

## CCOC(=O)C1=C(CN2[C@@H]3COC[C@H]2C[C@H](CC(=O)O)C3)NC(c2nccs2)=N[C@H]1c1cccc(F)c1Cl [Example 66, Exo-2-[(1S,5R)-9-[[(4R)-4-(2-chloro-3-fluoro-phenyl)-5-ethoxycarbonyl-2-thiazol-2-yl-1,4-dihydropyrimidin-6-yl]methyl]-3-oxa-9-azabicyclo[3.3.1]nonan-7-yl]acetic acid]
[1]
  solubility thermodynamic: 390 µg/mL (≈ 693 µM)
CYP3A4
  % of Positive control (10 μM Rifampicin): 6.2%
[3]
  EC50: 3.6 nM
[4]
  CLh: 3.2 mL/min/kg

## CCOC(=O)C1=C(CN2[C@@H]3COC[C@H]2C[C@H](CC(=O)O)C3)NC(c2nccs2)=N[C@H]1c1cccc(F)c1Br [Example 68, Exo-2-[(1S,5R)-9-[[(4R)-4-(2-bromo-3-fluoro-phenyl)-5-ethoxycarbonyl-2-thiazol-2-yl-1,4-dihydropyrimidin-6-yl]methyl]-3-oxa-9-azabicyclo[3.3.1]nonan-7-yl]acetic acid]
[1]
  solubility thermodynamic: 320 µg/mL (≈ 527 µM)
CYP3A4
  % of Positive control (10 μM Rifampicin): 7.7%
[3]
  EC50: 3.8 nM
[4]
  CLh: 3.5 mL/min/kg

## CCOC(=O)C1=C(CN2[C@@H]3COC[C@H]2C[C@H](CC(=O)O)C3)NC(c2nccs2)=N[C@H]1c1ccc(F)c(F)c1Cl [Example 69, Exo-2-[(1S,5R)-9-[[(4R)-4-(2-chloro-3,4-difluoro-phenyl)-5-ethoxycarbonyl-2-thiazol-2-yl-1,4-dihydropyrimidin-6-yl]methyl]-3-oxa-9-azabicyclo[3.3.1]nonan-7-yl]acetic acid]
[1]
  solubility thermodynamic: 203 µg/mL (≈ 349 µM)
CYP3A4
  % of Positive control (10 μM Rifampicin): 21%
HepDE19 cells
  Selectivity index (CC50/EC50): >32258
[2]
  CC50 at 5 days: > 100 µM
[3]
  EC50: 3.1 nM
[4]
  CLh: 2.4 mL/min/kg

## COC(=O)C1=C(CN2[C@@H]3COC[C@H]2C[C@H](CC(=O)O)C3)NC(c2nccs2)=N[C@H]1c1ccc(F)c(F)c1Cl [Example 73, Exo-2-[(1S,5R)-9-[[(4R)-4-(2-chloro-3,4-difluoro-phenyl)-5-methoxycarbonyl-2-thiazol-2-yl-1,4-dihydropyrimidin-6-yl]methyl]-3-oxa-9-azabicyclo[3.3.1]nonan-7-yl]acetic acid]
[1]
  solubility thermodynamic: > 654 µg/mL
CYP3A4
  % of Positive control (10 μM Rifampicin): 21%
HepDE19 cells
  Selectivity index (CC50/EC50): 24083
[2]
  CC50 at 5 days: 72 µM
[3]
  EC50: 3 nM
[4]
  CLh: 3.6 mL/min/kg

## CCOC(=O)C1=C(CN2[C@@H]3COC[C@H]2C[C@H](CC(=O)O)C3)NC(c2nccs2)=N[C@H]1c1ccc(F)c(F)c1Br [Example 80, Exo-2-[(1S,5R)-9-[[(4R)-4-(2-bromo-3,4-difluoro-phenyl)-5-ethoxycarbonyl-2-thiazol-2-yl-1,4-dihydropyrimidin-6-yl]methyl]-3-oxa-9-azabicyclo[3.3.1]nonan-7-yl]acetic acid]
[1]
  solubility thermodynamic: 221 µg/mL (≈ 353 µM)
CYP3A4
  % of Positive control (10 μM Rifampicin): 35%
HepDE19 cells
  Selectivity index (CC50/EC50): 22394
[2]
  CC50 at 5 days: 38 µM
[3]
  EC50: 1.7 nM
[4]
  CLh: 4.6 mL/min/kg

## COC(=O)C1=C(CN2[C@@H]3C[C@H](CC(=O)O)C[C@H]2C(F)(F)C3)NC(c2nccs2)=N[C@H]1c1cccc(F)c1Cl [Example 88, 2-[(1R,3S,5S)-8-[[(4R)-4-(2-chloro-3-fluoro-phenyl)-5-methoxycarbonyl-2-thiazol-2-yl-1,4-dihydropyrimidin-6-yl]methyl]-6,6-difluoro-8-azabicyclo[3.2.1]octan-3-yl]acetic acid]
[1]
  solubility thermodynamic: 120 µg/mL (≈ 211 µM)
CYP3A4
  % of Positive control (10 μM Rifampicin): 39%
HepDE19 cells
  Selectivity index (CC50/EC50): 39662
[2]
  CC50 at 5 days: 52 µM
[3]
  EC50: 1.3 nM
[4]
  CLh: 0.2 mL/min/kg

## COC(=O)C1=C(CN2[C@@H]3C[C@H](CC(=O)O)C[C@H]2C(F)(F)C3)NC(c2nccs2)=N[C@H]1c1ccccc1Cl [Example 90, 2-[(1R,3S,5S)-8-[[(4R)-4-(2-chlorophenyl)-5-methoxycarbonyl-2-thiazol-2-yl-1,4-dihydropyrimidin-6-yl]methyl]-6,6-difluoro-8-azabicyclo[3.2.1]octan-3-yl]acetic acid]
[1]
  solubility thermodynamic: 230 µg/mL (≈ 417 µM)
CYP3A4
  % of Positive control (10 μM Rifampicin): 37%
[3]
  EC50: 3.5 nM
[4]
  CLh: 1.5 mL/min/kg

## COC(=O)C1=C(CN2C3COCC2C(F)(F)[C@H](CC(=O)O)C3)NC(c2nccs2)=N[C@H]1c1ccc(F)cc1Cl (stereo partly drawn) [Example 126, 2-[(7S)-9-[[(4R)-4-(2-chloro-4-fluoro-phenyl)-5-methoxycarbonyl-2-thiazol-2-yl-1,4-dihydropyrimidin-6-yl]methyl]-6,6-difluoro-3-oxa-9-azabicyclo[3.3.1]nonan-7-yl]acetic acid]
[1]
  solubility thermodynamic: > 605 µg/mL
CYP3A4
  % of Positive control (10 μM Rifampicin): 17%
HepDE19 cells
  Selectivity index (CC50/EC50): >9709
[2]
  CC50 at 5 days: > 100 µM
[3]
  EC50: 10.3 nM
[4]
  CLh: 0 mL/min/kg

## COC(=O)C1=C(CN2C3COCC2CC(CC(=O)O)C3)NC(c2nccs2)=N[C@H]1c1ccc(F)c(F)c1Cl (stereo partly drawn) [Example 135, Endo-2-[9-[[(4R)-4-(2-chloro-3,4-difluoro-phenyl)-5-methoxycarbonyl-2-thiazol-2-yl-1,4-dihydropyrimidin-6-yl]methyl]-3-oxa-9-azabicyclo[3.3.1]nonan-7-yl]acetic acid]
[1]
  solubility thermodynamic: 533 µg/mL (≈ 940 µM)
CYP3A4
  % of Positive control (10 μM Rifampicin): 27%
HepDE19 cells
  Selectivity index (CC50/EC50): >15385
[2]
  CC50 at 5 days: > 100 µM
[3]
  EC50: 6.5 nM
[4]
  CLh: 4.2 mL/min/kg
